Source: paper PMC10233829 (ACS Omega, 2023)
Values after ≈ are worked out from the molar mass of the structure shown.

Assays:
[1] = system: S. aureus NCTC 4163; test: MIC, twofold microdilution, standard strain; format: cell-based; conditions: Staphylococcus aureus, NCTC4163, 18 h
[2] = system: S. aureus ATCC 25923; test: MIC, twofold microdilution, standard strain; format: cell-based; conditions: Staphylococcus aureus, ATCC25923, 18 h
[3] = system: S. aureus ATCC 6538; test: MIC, twofold microdilution, standard strain; format: cell-based, Staphylococcus aureus; conditions: Staphylococcus aureus, ATCC6538; standard strain, 18 h
[4] = system: S. aureus ATCC 29213; test: MIC, twofold microdilution, standard strain; format: cell-based; conditions: Staphylococcus aureus, ATCC29213, 18 h
[5] = system: S. epidermidis ATCC 12228; test: MIC, twofold microdilution, standard strain; format: cell-based; conditions: Staphylococcus epidermidis, ATCC12228, 18 h
[6] = system: S. epidermidis ATCC 35984; test: MIC, twofold microdilution, standard strain; format: cell-based; conditions: Staphylococcus epidermidis, ATCC35984, 18 h
[7] = system: P. aeruginosa ATCC 15442; test: MIC, twofold microdilution, standard strain; format: cell-based, Pseudomonas aeruginosa; conditions: Pseudomonas aeruginosa, ATCC15442; standard strain, 18 h
[8] = system: E. coli ATCC 25922; test: MIC, twofold microdilution, standard strain; format: cell-based, Escherichia coli; conditions: Escherichia coli, ATCC25922; standard strain, 18 h
[9] = system: S. aureus 180; test: MIC, twofold microdilution, clinical strain; format: cell-based; conditions: Staphylococcus aureus, 18 h
[10] = system: S. aureus 5595; test: MIC, twofold microdilution, clinical strain; format: cell-based; conditions: Staphylococcus aureus, 18 h
[11] = system: S. aureus T5595; test: MIC, twofold microdilution, clinical strain; format: cell-based, Staphylococcus aureus; conditions: Staphylococcus aureus, T5595, 18 h
[12] = system: S. aureus T5591; test: MIC, twofold microdilution, clinical strain; format: cell-based, Staphylococcus aureus; conditions: Staphylococcus aureus, T5591, 18 h
[13] = system: S. epidermidis 4341; test: MIC, twofold microdilution, clinical strain; format: cell-based; conditions: Staphylococcus epidermidis, 18 h
[14] = system: S. epidermidis 5253; test: MIC, twofold microdilution, clinical strain; format: cell-based, Staphylococcus epidermidis; conditions: Staphylococcus epidermidis, 5253, 18 h
[15] = system: S. epidermidis KR4243/1; test: MIC, twofold microdilution, clinical strain; format: cell-based; conditions: Staphylococcus epidermidis, 18 h
[16] = system: S. pasteuri KR 4358; test: MIC, twofold microdilution, clinical strain; format: cell-based; conditions: Staphylococcus pasteuri, KR4358, 18 h
[17] = system: P. aeruginosa 37; test: MIC, twofold microdilution, clinical strain; format: cell-based; conditions: Pseudomonas aeruginosa, 18 h
[18] = system: P. aeruginosa 659; test: MIC, twofold microdilution, clinical strain; format: cell-based; conditions: Pseudomonas aeruginosa, 18 h
[19] = system: E. coli 951; test: MIC, twofold microdilution, clinical strain; format: cell-based; conditions: Escherichia coli, 18 h
[20] = system: E. coli 520; test: MIC, twofold microdilution, clinical strain; format: cell-based; conditions: Escherichia coli, 18 h
[21] = system: E. coli 600; test: MIC, twofold microdilution, clinical strain; format: cell-based, Escherichia coli; conditions: Escherichia coli, 600, 18 h
[22] = system: E. cloacae 8; test: MIC, twofold microdilution, clinical strain; format: cell-based, Escherichia cloacae; conditions: Enterobacter cloacae, 8; clinical strain, 18 h
[23] = system: K. pneumoniae 28; test: MIC, twofold microdilution, clinical strain; format: cell-based; conditions: Klebsiella pneumoniae, 18 h
[24] = system: K. pneumoniae 510; test: MIC, twofold microdilution, clinical strain; format: cell-based, Klebsiella pneumoniae; conditions: Klebsiella pneumoniae, 510; clinical strain, 18 h
[25] = system: M. tuberculosis H37Rv; test: Tuberculostatic activity, Microplate Alamar Blue Assay (MIC); format: cell-based, Mycobacterium tuberculosis; conditions: Mycobacterium tuberculosis, H37RV; MABA; read-out: MIC M. tuberculosis H37Rv
[26] = system: M. tuberculosis Spec. 192; test: as above; format: cell-based; conditions: Mycobacterium tuberculosis, MABA, read-out: MIC M. tuberculosis Spec. 192 (sensitive to tuberculostatics)
[27] = system: M. tuberculosis Spec 210; test: microbe, parasite or virus in culture; format: cell-based, Mycobacterium tuberculosis; conditions: M. tuberculosis Spec. 210
[28] = system: PC3 cells; test: MTT assay, cytotoxic activity; format: cell-based, human; conditions: Homo sapiens, PC-3, 72 h, MTT, 72 h
Experimental: Metastatic prostate cancer (PC3) and human immortal keratinocyte (HaCaT) cell lines were purchased from the American Type Culture Collection (ATCC, Rockville, MD, USA) and cultured in MEM (minimal essential medium, Thermo Sci, USA), RPMI 1640 (Roswell Park Memorial Institute, Biowest SAS, France), and DMEM (Dulbecco’s Modified Eagle’s Medium, Biowest SAS, France). Cells were seeded in 6 mL medium in a tissue culture flask (50 mL) in a 37 °C/5% CO2 humidified incubator. […] MTT analysis was performed according to a previous study.[59] Untreated cells were used as controls. Cell absorbance results were inserted into the formula for the relative MTT level (%). It allows to calculate the viability of cells under the influence of the tested compounds. Cell viability was expressed as the percentage of MTT reduction in cells treated with tested compounds compared to the control sample. The relative MTT level was calculated using the formula [100%] = A/B × 100% where A—the test sample absorbance and B—the control sample absorbance.

[29] = MTT assay, cytotoxic activity; format: cell-based; conditions: human, HaCaT cells (immortal keratinocytes); MTT, 72 h, normal cell line; read-out: IC50 HaCaT
Experimental: Cells were seeded in 6 mL medium in a tissue culture flask (50 mL) in a 37 °C/5% CO2 humidified incubator. […] MTT analysis was performed according to a previous study.[59] Untreated cells were used as controls. Cell absorbance results were inserted into the formula for the relative MTT level (%). It allows to calculate the viability of cells under the influence of the tested compounds. Cell viability was expressed as the percentage of MTT reduction in cells treated with tested compounds compared to the control sample. The relative MTT level was calculated using the formula [100%] = A/B × 100% where A—the test sample absorbance and B—the control sample absorbance.

[30] = system: Staphylococci (standard strains); test: MIC, standard Gram-positive strains as a panel; format: cell-based, S. aureus, S. epidermidis; conditions: standard Gram-positive strains of Table 1; read-out: MIC toward standard Staphylococci (range over strains)
[31] = system: clinical bacterial strains; test: MIC, clinical isolates as groups of strains; format: cell-based

Row | SMILES | MIC [1] [µg/mL] | MIC [2] [µg/mL] | MIC [3] [µg/mL] | MIC [4] [µg/mL] | MIC [5] [µg/mL] | MIC [6] [µg/mL] | MIC [7] [µg/mL] | MIC [8] [µg/mL] | MIC [9] [µg/mL] | MIC [10] [µg/mL] | MIC [11] [µg/mL] | MIC [12] [µg/mL] | MIC [13] [µg/mL] | MIC [14] [µg/mL] | MIC [15] [µg/mL] | MIC [16] [µg/mL] | MIC [17] [µg/mL] | MIC [18] [µg/mL] | MIC [19] [µg/mL] | MIC [20] [µg/mL] | also measured
1 | O=C(O)c1cn(C2CC2)c2cc(N3CCN(C(=O)CCCCCCCCCCBr)CC3)c(F)cc2c1=O [Compound 13, 7-[4-(11-Bromoundekanoyl)-piperazin-1-yl]-1-cyclopropyl-6-fluoro-4-oxo-1,4-dihydro-quinoline-3-carboxylic Acid] | 6.4 (≈ 11.1 µM) | 12.8 (≈ 22.1 µM) | 12.8 (≈ 22.1 µM) | 12.8 (≈ 22.1 µM) | 12.8 (≈ 22.1 µM) | 12.8 (≈ 22.1 µM) | > 25.6 | 25.6 (≈ 44.3 µM) | > 25.6 | > 25.6 | > 25.6 | > 25.6 | > 25.6 | > 25.6 | > 25.6 | > 25.6 | > 25.6 | > 25.6 | > 25.6 | > 25.6 | MIC [21]: > 25.6 µg/mL; MIC [22]: > 25.6 µg/mL; MIC [23]: > 25.6 µg/mL; MIC [24]: > 25.6 µg/mL; MIC [25]: 2 µg/mL (≈ 3.46 µM); MIC [26]: 4 µg/mL (≈ 6.91 µM); fold more effective than the reference tuberculostatics [27]: 8–32 fold; IC50 [28]: 33.7 ± 8.2 µM; IC50 at 72 h [29]: 93.4 ± 10.1 µM
2 | O=C(O)c1cn(C2CC2)c2cc(N3CCN(C(=O)CCCC(F)(F)F)CC3)c(F)cc2c1=O [Compound 16, 7-[4-(5,5,5-Trifluoropentanoyl)-piperazin-1-yl]-1-cyclopropyl-6-fluoro-4-oxo-1,4-dihydro-quinoline-3-carboxylic Acid] | 0.2 (≈ 0.426 µM) | 0.2 (≈ 0.426 µM) | 0.2 (≈ 0.426 µM) | 0.2 (≈ 0.426 µM) | 0.2 (≈ 0.426 µM) | 0.2 (≈ 0.426 µM) | 1 (≈ 2.13 µM) | 1.6 (≈ 3.41 µM) | 1 (≈ 2.13 µM) | 1 (≈ 2.13 µM) | 0.4 (≈ 0.852 µM) | 0.4 (≈ 0.852 µM) | 25.6 (≈ 54.5 µM) | > 25.6 | 0.4 (≈ 0.852 µM) | 0.4 (≈ 0.852 µM) | > 25.6 | > 25.6 | > 25.6 | 3.2 (≈ 6.82 µM) | MIC [21]: 6.4 µg/mL (≈ 13.6 µM); MIC [22]: 8 µg/mL (≈ 17 µM); MIC [23]: > 25.6 µg/mL; MIC [24]: > 25.6 µg/mL; MIC [25]: 64 µg/mL (≈ 136 µM); MIC [26]: 64 µg/mL (≈ 136 µM); IC50 [28]: 68.8 ± 9.9 µM; IC50 at 72 h [29]: > 100 µM; MIC [30]: 0.2 µg/mL (≈ 0.426 µM); share of the reference (CP) activity ([31]; S. aureus T5595 and T5591): 62.5%
3 | O=C(O)c1cn(C2CC2)c2cc(N3CCN(CCCC(=O)N4CCN(c5cc6c(cc5F)c(=O)c(C(=O)O)cn6C5CC5)CC4)CC3)c(F)cc2c1=O [Compound 18, CP–Butyryl–CP Dimer] | 2 (≈ 2.74 µM) | 4 (≈ 5.47 µM) | 2 (≈ 2.74 µM) | 4 (≈ 5.47 µM) | 1 (≈ 1.37 µM) | 16 (≈ 21.9 µM) | 4 (≈ 5.47 µM) | 16 (≈ 21.9 µM) | 6.4 (≈ 8.76 µM) | 6.4 (≈ 8.76 µM) | 6.4 (≈ 8.76 µM) | 6.4 (≈ 8.76 µM) | > 25.6 | > 25.6 | 3.2 (≈ 4.38 µM) | 3.2 (≈ 4.38 µM) | 12.8 (≈ 17.5 µM) | > 25.6 | 6.4 (≈ 8.76 µM) | 1.6 (≈ 2.19 µM) | MIC [21]: 0.4 µg/mL (≈ 0.547 µM); MIC [22]: 0.8 µg/mL (≈ 1.09 µM); MIC [23]: > 25.6 µg/mL; MIC [24]: > 25.6 µg/mL; MIC [25]: 8 µg/mL (≈ 10.9 µM); MIC [26]: 16 µg/mL (≈ 21.9 µM); fold more effective than the reference tuberculostatics [27]: 2–8 fold; IC50 [28]: > 100 µM; IC50 at 72 h [29]: 92.2 ± 8.7 µM; MIC ([31]; clinical strains, read-out: MIC against selected E. coli and E. cloacae strains): 0.1 to 0.8 µg/mL (≈ 0.137 to 1.09 µM)
